Structures can show the parent of a compound that is named as a salt.

One experiment deals with T1, c-Met (Homo sapiens, UniProt P08581). Description: c-Met inhibitory assay using DeskTop Profiler (Method B). The format is biochemical. Also on record: made in house. As to conditions: ATP 43 μM. The protocol:
Method B) c-Met Inhibitory Assay Using DeskTop Profiler
A dephosphorylation enzyme inhibitor cocktail (PhosSTOP, #4906837, product of Roche) and a protease inhibitor cocktail (Complete, Mini, EDTA-free, #1836170; product of Roche) were added to a reaction buffer (100 mM HEPES (pH: 7.5), 10 mM MgCl2, 0.003% Brij-35, 0.04% Tween, and 1 mM DTT). In the presence of the compound of the present invention, recombinant c-Met (purified product of Taiho Pharmaceutical Co., Ltd.), fluorescence-labeled c-Met substrate peptide (FL-Peptide 2, #760346, Caliper Life Sciences) (final concentration: 1.5 μM), and ATP (final concentration: 43 μM) were added thereto, and the mixture was allowed to react at 28° C. for 90 minutes. EDTA was added to the reaction mixture to a final concentration of 10 mM, to thereby terminate reaction. By use of DeskTop Profiler (#119900, Caliper Life Sciences), each fluorescence intensity of the substrate and that of the phosphorylated product was determined, whereby the amount of the formed phosphorylated product was determined. The compound concentration that realizes 50% inhibition of formation of phosphorylated product was defined as IC50 (μM), and the results are shown in the following Tables.
Target sequence in this assay (P08581 25-1390): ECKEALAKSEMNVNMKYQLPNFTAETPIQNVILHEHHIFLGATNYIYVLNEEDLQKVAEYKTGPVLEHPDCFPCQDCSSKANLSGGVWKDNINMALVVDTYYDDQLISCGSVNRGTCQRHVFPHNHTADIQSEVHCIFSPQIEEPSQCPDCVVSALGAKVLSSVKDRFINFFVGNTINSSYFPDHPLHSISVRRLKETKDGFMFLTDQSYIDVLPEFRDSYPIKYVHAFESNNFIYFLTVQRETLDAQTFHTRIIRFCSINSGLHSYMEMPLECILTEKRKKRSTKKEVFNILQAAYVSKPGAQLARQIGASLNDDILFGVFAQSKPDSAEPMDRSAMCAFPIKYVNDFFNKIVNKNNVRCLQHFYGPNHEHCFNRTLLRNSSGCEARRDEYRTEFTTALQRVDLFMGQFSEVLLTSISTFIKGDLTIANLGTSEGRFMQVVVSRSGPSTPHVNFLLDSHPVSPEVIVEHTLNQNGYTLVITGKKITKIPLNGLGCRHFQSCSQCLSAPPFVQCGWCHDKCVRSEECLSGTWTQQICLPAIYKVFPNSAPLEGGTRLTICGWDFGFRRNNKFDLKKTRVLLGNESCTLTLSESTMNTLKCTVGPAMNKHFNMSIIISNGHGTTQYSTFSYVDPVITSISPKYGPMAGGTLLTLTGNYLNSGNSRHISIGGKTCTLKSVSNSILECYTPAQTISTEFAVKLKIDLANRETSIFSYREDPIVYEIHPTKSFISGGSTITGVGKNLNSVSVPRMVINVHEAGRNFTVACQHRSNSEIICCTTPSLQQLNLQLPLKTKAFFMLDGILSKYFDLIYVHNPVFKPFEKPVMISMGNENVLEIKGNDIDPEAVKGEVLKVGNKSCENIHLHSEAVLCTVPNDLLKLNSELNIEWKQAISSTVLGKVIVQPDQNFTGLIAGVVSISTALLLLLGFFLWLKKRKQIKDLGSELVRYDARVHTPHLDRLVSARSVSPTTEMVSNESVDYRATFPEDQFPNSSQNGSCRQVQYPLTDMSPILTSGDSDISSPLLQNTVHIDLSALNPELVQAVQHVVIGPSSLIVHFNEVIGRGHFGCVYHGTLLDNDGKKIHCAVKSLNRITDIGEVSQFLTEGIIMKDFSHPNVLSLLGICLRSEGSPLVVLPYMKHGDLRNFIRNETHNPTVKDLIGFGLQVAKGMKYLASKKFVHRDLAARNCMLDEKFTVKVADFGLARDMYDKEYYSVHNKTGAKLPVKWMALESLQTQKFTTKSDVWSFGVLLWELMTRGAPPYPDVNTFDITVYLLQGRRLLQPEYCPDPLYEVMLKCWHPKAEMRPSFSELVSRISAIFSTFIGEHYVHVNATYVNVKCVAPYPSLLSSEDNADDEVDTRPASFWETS
Consider `CC[C@@H](CO)NC(=O)c1cc2c(Oc3ccc(NC(=S)NC(=O)Cc4cccc(F)c4)cc3F)ccnc2cc1OC` [Example 41, (S)-4-(2-Fluoro-4-(3-(2-(3-fluorophenyl)acetyl)thioureido)phenoxy)-N-(1-hydroxybutan-2-yl)-7-methoxyquinoline-6-carboxamide], for which the IC50 amounted to 34 nM.
`CNC(=O)c1cc2c(Oc3ccc(NC(=S)NC(=O)Cc4ccccc4)c(F)c3)ccnc2cc1OC` [Example 49, 4-(3-Fluoro-4-(3-(2-phenylacetyl)thioureido)phenoxy)-7-methoxy-N-methylquinoline-6-carboxamide] returned an IC50 of 62 nM.
The same measure, in the same setting: under `COc1cc2nccc(Oc3ccc(NC(=S)NC(=O)Cc4c(F)cccc4F)cc3F)c2cc1C(=O)NCC(C)(C)O` [Example 45] stands 56 nM.
Same read-out and setting: to `CNC(=O)c1cc2c(Oc3ccc(NC(=S)NC(=O)Cc4ccc(C(F)(F)F)cc4)cc3F)ccnc2cc1OC` [Example 47, 4-(2-Fluoro-4-(3-(2-(4-trifluoromethylphenyl)acetyl)thioureido)phenoxy)-7-methoxy-N-methylquinoline-6-carboxamide] belongs 203 nM; to `CC[C@@H](CO)NC(=O)c1cc2c(Oc3ccc(NC(=S)NC(=O)Cc4ccccc4F)cc3F)ccnc2cc1OC` [Example 40, (S)-4-(2-Fluoro-4-(3-(2-(2-fluorophenyl)acetyl)thioureido)phenoxy)-N-(1-hydroxybutan-2-yl)-7-methoxyquinoline-6-carboxamide], 27 nM.
`CC[C@@H](CO)NC(=O)c1cc2c(Oc3ccc(NC(=S)NC(=O)Cc4ccccc4)cc3F)ccnc2cc1OC` [Example 31, (S)-4-(2-Fluoro-4-(3-(2-phenylacetyl)thioureido)phenoxy)-N-(1-hydroxybutan-2-yl)-7-methoxyquinoline-6-carboxamide] had a 50% inhibitory concentration (IC50) of 26 nM. This IC50 and that of the compound before are within 1.5-fold of each other.
Still for that read-out and setting: under `COc1cc2nccc(Oc3ccc(NC(=S)NC(=O)Cc4ccc(Cl)cc4)cc3F)c2cc1C(=O)NCC(C)(C)O` [Example 42, 4-(4-(3-(2-(4-Chlorophenyl)acetyl)thioureido)-2-fluorophenoxy)-N-(2-hydroxy-2-methylpropyl)-7-methoxyquinoline-6-carboxamide] stands 45 nM; under `CCN(CC(C)(C)O)C(=O)CNC(=O)c1cc2c(Oc3ccc(NC(=S)NC(=O)Cc4ccccc4)cc3F)ccnc2cc1OC` [Example 35, N-(2-(Ethyl(2-hydroxy-2-methylpropyl)amino)-2-oxoethyl)-4-(2-fluoro-4-(3-(2-phenylacetyl)thioureido)phenoxy)-7-methoxyquinoline-6-carboxamide], 31 nM; under `COc1cc2nccc(Oc3ccc(NC(=S)NC(=O)Cc4ccccc4F)cc3F)c2cc1C(=O)NCC(C)(C)O` [Example 39, 4-(2-Fluoro-4-(3-(2-(2-fluorophenyl)acetyl)thioureido)phenoxy)-N-(2-hydroxy-2-methylpropyl)-7-methoxyquinoline-6-carboxamide], 29 nM.
Still for that read-out and setting: to `COCCNC(=O)CNC(=O)c1cc2c(Oc3ccc(NC(=S)NC(=O)Cc4ccccc4)cc3F)ccnc2cc1OC` [Example 33, 4-(2-Fluoro-4-(3-(2-phenylacetyl)thioureido)phenoxy)-7-methoxy-N-(2-(2-methoxyethylamino)-2-oxoethyl)quinoline-6-carboxamide] belongs 12 nM; to `COc1cc2nccc(Oc3ccc(NC(=S)NC(=O)Cc4ccccc4)cc3F)c2cc1C(=O)NCCC(=O)N(C)C` [Example 36, N-(3-(Dimethylamino)-3-oxopropyl)-4-(2-fluoro-4-(3-(2-phenylacetyl)thioureido)phenoxy)-7-methoxyquinoline-6-carboxamide], 52 nM; to `COc1cc2nccc(Oc3ccc(NC(=S)NC(=O)Cc4c(F)cccc4F)cc3F)c2cc1C(=O)NCCN1CCOCC1` [Example 44], 101 nM.
On the same count and under the same terms, to `CNC(=O)c1cc2c(Oc3ccc(NC(=S)NC(=O)Cc4ccccc4)cc3Cl)ccnc2cc1OC` [Example 48, 4-(2-Chloro-4-(3-(2-phenylacetyl)thioureido)phenoxy)-7-methoxy-N-methylquinoline-6-carboxamide] belongs 34 nM.
As for `CNC(=O)c1cc2c(Oc3ccc(NC(=S)NC(=O)Cc4cccc(OC)c4)cc3F)ccnc2cc1OC` [Example 46, 4-(2-Fluoro-4-(3-(2-(3-methoxyphenyl)acetyl)thioureido)phenoxy)-7-methoxy-N-methylquinoline-6-carboxamide], the half-maximal inhibitory concentration (IC50) was found to be 85 nM.
Still for that read-out and setting: to `COc1cc2nccc(Oc3ccc(NC(=S)NC(=O)Cc4ccccc4)cc3F)c2cc1C(=O)N(C)C` [Example 50, 4-(2-Fluoro-4-(3-(2-phenylacetyl)thioureido)phenoxy)-7-methoxy-N,N-dimethylquinoline-6-carboxamide] belongs 139 nM; to `CC[C@@H](CO)NC(=O)c1cc2c(Oc3ccc(NC(=S)NC(=O)Cc4ccc(Cl)cc4)cc3F)ccnc2cc1OC` [Example 43, (S)-4-(4-(3-(2-(4-Chlorophenyl)acetyl)thioureido)-2-fluorophenoxy)-N-(1-hydroxybutan-2-yl)-7-methoxyquinoline-6-carboxamide], 50 nM.

A further experiment deals with T1, c-Met. Description: c-Met inhibitory assay using AlphaScreen (Method A). It counts as biochemical. Also on record: purchased Carna bio Co., Ltd 08-051. As to conditions: ATP 20 μM. The protocol:
Inhibitory activity of compounds against c-Met kinase was determined through the following procedures. Method A) c-Met inhibitory assay using AlphaScreen™
A biotinylated peptide including a phosphorylated site of Pyk2 (Tyr402), which is reported as a bio-substrate in Clin. Cancer Res. vol. […] The mixture was allowed to react at room temperature for 20 minutes. EDTA was added to the reaction mixture to a final concentration of 50 mM, to thereby terminate reaction. […] The reaction was done for one hour at room temperature. Thereafter, the fluorescence intensity from the reaction mixture was measured using a multi-label counter (EnVision™, Perkin Elmer).
Target sequence in this assay (P08581 956-1390 limits assumed): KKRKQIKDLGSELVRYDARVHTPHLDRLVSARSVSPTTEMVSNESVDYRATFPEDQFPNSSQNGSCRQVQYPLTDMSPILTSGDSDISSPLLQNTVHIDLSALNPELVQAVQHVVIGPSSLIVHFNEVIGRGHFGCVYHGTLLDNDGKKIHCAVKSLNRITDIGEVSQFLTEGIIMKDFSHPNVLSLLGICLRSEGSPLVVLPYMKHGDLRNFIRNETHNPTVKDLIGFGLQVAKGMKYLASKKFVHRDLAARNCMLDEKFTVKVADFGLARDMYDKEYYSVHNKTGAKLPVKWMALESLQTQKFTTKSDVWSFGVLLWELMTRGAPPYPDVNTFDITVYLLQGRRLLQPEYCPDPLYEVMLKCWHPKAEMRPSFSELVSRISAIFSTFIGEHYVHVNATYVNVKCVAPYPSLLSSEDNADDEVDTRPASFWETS
Regarding `COc1cc2nccc(Oc3ccc(NC(=S)NC(=O)Cc4ccccc4)cc3F)c2cc1C(=O)NC1CCCCNC1=O` (stereo not drawn) [Example 16, 4-(2-Fluoro-4-(3-(2-phenylacetyl)thioureido)phenoxy)-7-methoxy-N-(2-oxoazepan-3-yl)quinoline-6-carboxamide], the IC50 amounted to 177 nM.
Take `COc1cc2nccc(Oc3ccc(NC(=S)NC(=O)Cc4ccccc4)cc3F)c2cc1C(=O)NCC1(O)CCCCC1` [Example 25, 4-(2-Fluoro-4-(3-(2-phenylacetyl)thioureido)phenoxy)-N-((1-hydroxycyclohexyl)methyl)-7-methoxyquinoline-6-carboxamide]: the IC50 stood at 72 nM. Against the preceding compound, the IC50 is about 2.5-fold lower.
On the same count and under the same terms, under `CNC(=O)c1cc2c(Oc3ccc(NC(=S)NC(=O)Cc4ccccc4)cc3F)ccnc2cc1OC` [Example 6, 4-(2-Fluoro-4-(3-(2-phenylacetyl)thioureido)phenoxy)-7-methoxy-N-methylquinoline-6-carboxamide] stands 104 nM; under `COc1cc2nccc(Oc3ccc(NC(=S)NC(=O)Cc4ccccc4)cc3F)c2cc1C(=O)NC1CCN(C(C)=O)CC1` [Example 18, N-(1-Acetylpiperidin-4-yl)-4-(2-fluoro-4-(3-(2-phenylacetyl)thioureido)phenoxy)-7-methoxyquinoline-6-carboxamide], 300 nM.
On the same count and under the same terms, under `COc1cc2nccc(Oc3ccc(NC(=S)NC(=O)Cc4ccccc4)cc3F)c2cc1C(=O)NC1CCNCC1` [Example 14, 4-(2-Fluoro-4-(3-(2-phenylacetyl)thioureido)phenoxy)-7-methoxy-N-(piperidin-4-yl)quinoline-6-carboxamide dihydrochloride] stands 157 nM; under `COc1cc2nccc(Oc3ccc(NC(=S)NC(=O)Cc4ccccc4)cc3F)c2cc1C(=O)N1CCC(O)C1` (stereo not drawn) [Example 52, N-(3-Fluoro-4-(6-(3-hydroxypyrrolidine-1-carbonyl)-7-methoxyquinolin-4-yloxy)phenylcarbamothioyl)-2-phenylacetamide], 142 nM.
On the same count and under the same terms, under `COc1cc2nccc(Oc3ccc(NC(=S)NC(=O)Cc4ccccc4)cc3F)c2cc1C(=O)NCC(O)CO` (stereo not drawn) [Example 3, N-(2,3-Dihydroxypropyl)-4-(2-fluoro-4-(3-(2-phenylacetyl)thioureido)phenoxy)-7-methoxyquinoline-6-carboxamide] stands 62 nM; under `COc1cc2nccc(Oc3ccc(NC(=S)NC(=O)Cc4ccccc4)cc3F)c2cc1C(=O)N[C@H](CO)c1ccccc1` [Example 29, (S)-4-(2-Fluoro-4-(3-(2-phenylacetyl)thioureido)phenoxy)-N-(2-hydroxy-1-phenylethyl)-7-methoxyquinoline-6-carboxamide], 234 nM; under `COc1cc2nccc(Oc3ccc(NC(=S)NC(=O)Cc4ccccc4)cc3F)c2cc1C(=O)NCC1(O)CCOCC1` [Example 26, 4-(2-Fluoro-4-(3-(2-phenylacetyl)thioureido)phenoxy)-N-((4-hydroxytetrahydro-2H-pyran-4-yl)methyl)-7-methoxyquinoline-6-carboxamide], 125 nM.
`COc1cc2nccc(Oc3ccc(NC(=S)NC(=O)Cc4ccccc4)cc3F)c2cc1C(=O)NCCNC(C)=O` [Example 11, N-(2-Acetamidoethyl)-4-(2-fluoro-4-(3-(2-phenylacetyl)thioureido)phenoxy)-7-methoxyquinoline-6-carboxamide] came in with an IC50 of 145 nM.
Same read-out and setting: under `COc1cc2nccc(Oc3ccc(NC(=S)NC(=O)Cc4ccccc4)cc3F)c2cc1C(=O)NCCCOC(C)C` [Example 1, 4-(2-Fluoro-4-(3-(2-phenylacetyl)thioureido)phenoxy)-N-(3-isopropyloxypropyl)-7-methoxyquinoline-6-carboxamide] stands 210 nM.

For the origin of these results see patent US8304427B2, “Acylthiourea compound or salt thereof, and use thereof” (Taiho Pharmaceutical Co., Ltd., priority 2008, dated 2012).
